Literature values, collected in US20250228877A1, “MANAGEMENT OF SKIN AILMENTS” (priority 2021, published 2025).

Key:
[1] = test system: human umbilical vein endothelial cell (HUVEC) tube formation; details: after 24 hours; reconstituted extracellular matrix
[2] = 1-4% IP-6 in drinking water; measured by gadolinium uptake
[3] = 7 days following treatment

## O=P(O)(O)O[C@H]1[C@H](OP(=O)(O)O)[C@@H](OP(=O)(O)O)[C@H](OP(=O)(O)O)[C@@H](OP(=O)(O)O)[C@H]1OP(=O)(O)O [IP-6, myo-inositol hexakisphosphate]
[1]
  number of capillaries: reduction
[2]
  angiogenesis evaluated by micro-vessel density (MVD): inhibited angiogenesis
[3]
  vascularity (number of blood vessel formation): inhibited vascularity
